Series [1] deals with CRAF (Homo sapiens, UniProt P04049, Y340D/Y341D). Description: Z'-LYTE kinase assay. The following applies: Table 1. Type of series: biochemical.
Series [2] has as its target MEK1 (Homo sapiens, UniProt Q02750). Briefly: Z'-LYTE kinase assay. The class given is biochemical.
Series [3] deals with COT (Homo sapiens, UniProt P41279). Description: Z'-LYTE kinase assay. Type of series: biochemical.
The target in series [4] is SRC (Homo sapiens, UniProt P12931). Description: Z'-LYTE kinase assay. Type of series: biochemical. The following applies: IC50 SRC, Table 1.
Series [5] has as its target LCK (Homo sapiens, UniProt P06239). Briefly: Z'-LYTE kinase assay. Type of series: biochemical.
Series [6] deals with panel of 63 protein kinases. Description: Efficacy against a panel of protein kinases. Type of series: biochemical. The following applies: 1 μM, percent activity compared to DMSO.
Series [7] is described as follows: Pharmacokinetic studies, plasma, oral and intravenous dosing. The class given is in vivo, Balb/c mice.
Series [8] can be described thus: Single and repeat dose tolerability / oral toxicity. The class given is in vivo, CD-1 mice.
The test system of series [9] is melanoma and colorectal cancer cell lines that are mutant for BRAF. Briefly: Cell growth inhibition. The class given is cell-based. The following applies: Figures 2A and 2B.
Series [10] relates to RAS mutant melanoma and colorectal cancer cells. Description: Cell growth inhibition. Type of series: cell-based. The following applies: Figures 2A and 2B.
In series [11] the test system is cancer cells that are wild-type for BRAF and NRAS. Description: Cell growth inhibition. Type of series: cell-based. The following applies: Figure 2A, in general.
For series [12], the system named is SK-Mel 23 cells. Briefly: Cell growth inhibition. The class given is cell-based. The following applies: Figure 2A.
The subject of series [13] is MEK and ERK in WM266.4 cells (BRAF mutant). Briefly: pMEK/pERK immunoblot. The class given is cell-based. The following applies: 24 hr. In general terms: In western blotting, separated proteins are transferred to a membrane and probed.
For series [14], the system named is MEK in NRAS mutant D04 cells. Description: pMEK/pERK immunoblot. The following applies: 24 hr. The class given is cell-based.
The test system of series [15] is ERK activity in SK-Mel 23 cells. Description: pERK immunoblot. Type of series: cell-based. The following applies: 1 μM; 4 hr.
Series [16] relates to BRAF^V600E A375 cells. Description: Cell proliferation assay. The following applies: CellTiter Glo. Type of series: cell-based. (In general: In ATP-based viability assays light output follows the ATP content of the culture.)
Series [17] relates to NRAS mutant D04 cells. Description: Cell proliferation assay. The class given is cell-based. The following applies: CellTiter Glo.
Series [18] concerns patient #2 cells (vemurafenib-resistant melanoma). Briefly: Cell proliferation assay. The class given is cell-based.
The subject of series [19] is patient #3 tumor cells. Description: Cell proliferation assay. The following applies: CellTiter Glo. Type of series: cell-based.
Series [20] relates to cell lines from patient #5 tumor. Description: Cell proliferation assay. Type of series: cell-based. The following applies: CellTiter Glo.
Series [21] concerns A375 cells. Briefly: Colony formation. The class given is cell-based. The following applies: 0.5 μM; 20 days.
The test system of series [22] is BRAF^V600E A375 xenograft. Description: Xenograft growth. Type of series: in vivo, nude mice.
For series [23], the system named is NRAS mutant D04 xenograft. Description: Xenograft growth. The class given is in vivo. The following applies: 20 mg/kg oral daily; nude mice.
For series [24], the system named is A375/R xenograft (PLX4720-resistant A375). Briefly: Xenograft growth. The following applies: 20 mg/kg oral daily. The class given is in vivo, nude mice.
Series [25] deals with PLX4720-resistant PDX from patient #1. Briefly: PDX growth. The class given is in vivo, NSG mice. The following applies: PLX4720 45 mg/kg, CCT compounds 20 mg/kg daily gavage.
Series [26] concerns patient #2 cell xenograft. Briefly: Xenograft growth. The following applies: for xenograft growth: PLX4720 90 mg/kg, CCT compounds 20 mg/kg oral daily, nude mice. The class given is in vivo, nude mice.
The test system of series [27] is patient #3 PDX. Briefly: PDX growth. The class given is in vivo, NSG mice. The following applies: for PDX growth: PLX4720 45 mg/kg, CCT compounds 20 mg/kg daily gavage, NSG mice.
Series [28] has as its system ERK and SRC in patient #3 PDX. Description: pERK/pSFK immunoblot in PDX. Type of series: in vivo, mice. The following applies: PLX4720 45 mg/kg, CCT compounds 20 mg/kg daily gavage.
The test system of series [29] is patient #4 PDX. Description: PDX growth. Type of series: in vivo, NSG mice. The following applies: for PDX sensitivity: PLX4720 45 mg/kg, CCT compounds 20 mg/kg daily gavage, NSG mice.
The subject of series [30] is PDX from patient #5. Briefly: PDX growth. The class given is in vivo, NSG mice.
The subject of series [31] is PDX from patient #13. Briefly: PDX growth. The following applies: 20 mg/kg daily gavage; patient #13 PDX study. Type of series: in vivo, NSG mice.
Series [32] deals with MEK, ERK and SRC/SFKs in patient #2 cells. Briefly: pMEK, pERK, pSFK immunoblot. The class given is cell-based. The following applies: 4 hr; for inhibition of MEK, ERK, and SRC: 1 μM.
The test system of series [33] is caspase 3 and PARP cleavage in patient #2 cells. Description: PARP and caspase 3 immunoblot. The class given is cell-based. The following applies: 1 μM; 4 hr.
Where [34] appears, read: 25 mg/kg daily for 19 days, CD-1 mice.

CRAF, sequence (P04049 306-648 Y340D/Y341D limits assumed): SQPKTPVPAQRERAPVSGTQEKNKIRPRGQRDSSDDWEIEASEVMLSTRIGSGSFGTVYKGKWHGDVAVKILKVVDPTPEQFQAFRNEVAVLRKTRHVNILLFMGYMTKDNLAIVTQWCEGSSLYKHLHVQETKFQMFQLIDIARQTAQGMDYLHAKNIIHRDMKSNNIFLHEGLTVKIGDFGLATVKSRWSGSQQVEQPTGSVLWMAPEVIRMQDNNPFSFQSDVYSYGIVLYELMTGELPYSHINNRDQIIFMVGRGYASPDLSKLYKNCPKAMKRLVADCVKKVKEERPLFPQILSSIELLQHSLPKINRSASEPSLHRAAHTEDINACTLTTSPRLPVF
COT, sequence (P41279 whole entry): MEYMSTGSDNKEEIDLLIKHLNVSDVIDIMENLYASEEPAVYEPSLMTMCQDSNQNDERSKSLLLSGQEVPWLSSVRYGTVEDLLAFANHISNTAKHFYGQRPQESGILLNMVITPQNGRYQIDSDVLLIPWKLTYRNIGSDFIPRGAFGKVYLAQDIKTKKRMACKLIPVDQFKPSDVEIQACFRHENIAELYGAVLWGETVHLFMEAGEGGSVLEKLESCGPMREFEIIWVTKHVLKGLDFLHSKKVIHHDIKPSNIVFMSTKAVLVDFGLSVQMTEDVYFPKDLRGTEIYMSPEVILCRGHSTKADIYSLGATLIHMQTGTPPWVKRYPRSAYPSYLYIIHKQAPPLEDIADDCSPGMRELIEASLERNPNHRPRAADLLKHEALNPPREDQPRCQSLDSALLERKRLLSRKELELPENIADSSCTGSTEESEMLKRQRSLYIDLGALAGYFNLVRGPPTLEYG
MEK1, sequence (Q02750 whole entry): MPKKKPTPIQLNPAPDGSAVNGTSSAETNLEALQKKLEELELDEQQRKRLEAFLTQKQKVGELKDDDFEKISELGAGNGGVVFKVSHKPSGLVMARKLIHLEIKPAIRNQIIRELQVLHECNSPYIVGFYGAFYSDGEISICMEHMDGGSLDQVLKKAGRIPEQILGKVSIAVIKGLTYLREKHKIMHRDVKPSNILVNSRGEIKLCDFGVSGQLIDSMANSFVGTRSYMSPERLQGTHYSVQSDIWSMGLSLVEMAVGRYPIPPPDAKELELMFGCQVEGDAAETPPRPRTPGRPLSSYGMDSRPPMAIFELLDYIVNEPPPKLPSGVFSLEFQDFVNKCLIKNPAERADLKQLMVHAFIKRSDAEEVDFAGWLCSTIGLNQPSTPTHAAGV
SRC, sequence (P12931 whole entry): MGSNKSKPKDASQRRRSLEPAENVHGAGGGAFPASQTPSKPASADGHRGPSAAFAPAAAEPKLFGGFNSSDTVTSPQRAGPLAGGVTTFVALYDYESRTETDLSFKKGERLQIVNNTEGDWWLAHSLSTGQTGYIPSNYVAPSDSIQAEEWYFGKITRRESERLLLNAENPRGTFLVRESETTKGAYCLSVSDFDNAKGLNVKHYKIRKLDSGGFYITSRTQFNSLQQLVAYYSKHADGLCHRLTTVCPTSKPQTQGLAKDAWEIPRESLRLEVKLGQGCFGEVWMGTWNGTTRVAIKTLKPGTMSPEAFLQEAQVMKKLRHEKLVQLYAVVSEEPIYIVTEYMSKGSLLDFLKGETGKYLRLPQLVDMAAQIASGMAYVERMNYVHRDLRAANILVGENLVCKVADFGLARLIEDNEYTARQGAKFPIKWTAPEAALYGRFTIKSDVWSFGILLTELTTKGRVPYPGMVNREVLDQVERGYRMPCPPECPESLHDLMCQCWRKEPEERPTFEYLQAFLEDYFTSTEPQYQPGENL
LCK, sequence (P06239 whole entry): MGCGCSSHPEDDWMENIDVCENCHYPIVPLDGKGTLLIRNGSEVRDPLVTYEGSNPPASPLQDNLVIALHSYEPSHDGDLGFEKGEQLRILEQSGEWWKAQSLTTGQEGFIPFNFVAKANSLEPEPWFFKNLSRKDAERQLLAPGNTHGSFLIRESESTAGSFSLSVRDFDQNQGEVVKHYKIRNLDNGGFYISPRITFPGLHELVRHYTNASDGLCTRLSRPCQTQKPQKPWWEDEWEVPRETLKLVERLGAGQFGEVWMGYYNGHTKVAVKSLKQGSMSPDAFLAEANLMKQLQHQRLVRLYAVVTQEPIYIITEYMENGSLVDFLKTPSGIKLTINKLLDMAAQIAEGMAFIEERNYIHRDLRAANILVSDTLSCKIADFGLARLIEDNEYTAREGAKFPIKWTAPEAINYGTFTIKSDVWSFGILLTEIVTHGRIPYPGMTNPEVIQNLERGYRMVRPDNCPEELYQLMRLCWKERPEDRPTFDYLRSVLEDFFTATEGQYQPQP

For `CC(C)(C)c1cc(NC(=O)Nc2ccc(Oc3ccnc4[nH]c(=O)cnc34)cc2F)n(-c2ccccc2)n1` [CCT196969], the IC50 – broadly, the concentration at which inhibition is half-maximal – in series [1] was 10 nM; in series [2], greater than 10000 nM; in series [3] it was greater than 10000 nM; in series [4], 30 nM; in series [5] it was 14 nM. Moreover, the “kinases inhibited in a panel of protein kinases” value in series [6] is “only inhibit SRC, LCK, and the p38 mitogen-activated protein kinases (MAPKs)”. The bioavailability (in general, dose-corrected exposure relative to a reference, in per cent) in [7] (Balb/c, mouse, plasma, po, 10 mg/kg) was roughly 55%. For the same compound, in series [7] (oral 10 mg/kg/day), the “area under the curve” value is listed as ~416,000 nM.hr. The plasma concentration in series [7] (oral 10 mg/kg/day, at 24 hr, 10 mg/kg/day) is roughly 1000 nM. The “clinical signs and body weight” value in series [8] (20 mg/kg daily × 24 days, CD-1 mice) is “no clinical signs or body weight loss”. In [8] (setting [34]), the “body weight and food intake” value is reported as “did not show any body weight loss or reduction in food intake”. In addition, the clinical signs entry is “tachypnoea with decreased activity and excitation” in series [8] (setting [34]); “slight, transient tachypnoea” in [8] (single dose 40 mg/kg, oral gavage, CD-1 mice, 1 hr after dosing). Further, in [8] (setting [34]), the mortality result is on record as “did not observe any mortality”. Moreover, the “microscopical examination of tissues” value in series [8] (25 mg/kg daily for 19 days, end of the study) is “did not identify any treatment-related changes”. For the same compound, the weight loss entry in [8] (30 mg/kg for 4 days, oral gavage) is given as “do not cause significant weight loss”. Besides, in series [8] (single dose 20 mg/kg, oral gavage, CD-1 mice), the “clinical signs / adverse effects” value was “no observed adverse effects”. The body weight entry in series [8] (single dose 40 mg/kg, oral gavage, CD-1 mice) is reported as “no effect on body weight”; in series [24] (A375/R xenograft study), “without causing any body weight loss”; in [26] (20 mg/kg oral daily, patient #2 xenograft study), “without causing any body weight loss”; in [27] (20 mg/kg daily gavage, patient #3 PDX study), “without causing body weight loss”; in [29] (20 mg/kg daily gavage, patient #4 PDX study) it was “do not cause body weight loss”; in series [30] (20 mg/kg daily gavage, patient #5 PDX study) it was “did not observe any loss in body weight”. Besides, the body weight entry in series [31] was “no body weight loss was observed”. Moreover, the “activity against BRAF mutant cell lines” value in series [9] is on record as “active”. Also, in series [10], the “activity against RAS mutant cells” value was “also active”. Also, the “activity against BRAF and NRAS wild-type cancer cells” value in series [11] is reported as “not active”. The “sensitivity of SK-Mel 23 cells” value in [12] is listed as “sensitive”. Besides, the “inhibition of MEK and ERK” value in series [13] is “inhibit MEK and ERK”. In addition, the “effect on MEK in NRAS mutant cells” value in [14] is “inhibit rather than activate MEK”. In addition, the “ERK activity in SK-Mel 23 cells” value in series [15] is reported as “sensitive”. The “growth inhibition of BRAF mutant melanoma cells, compared with PLX4720” value in series [16] is “more potently than PLX4720”. Moreover, the “NRAS mutant cell growth inhibition, compared with PLX4720” value in [17] is “more efficiently than does PLX4720”. In series [18] (CellTiter Glo), the cell line sensitivity entry is recorded as “sensitive”. For the same compound, the “growth inhibition compared with PLX4720, ARQ736, RAF265, MLN2480” value in [18] (CellTiter Glo, Figure S3C) is “more potently than any of the other inhibitors”. Besides, in [19], the cell sensitivity result was “sensitive”. The “cell sensitivity compared with PLX4720” value in series [20] is reported as “more sensitive”. Moreover, the “colony formation under continual exposure” value in [21] is given as “no cells are able to grow”. Further, the xenograft growth entry in series [22] (10 mg/kg/day, data not shown) is “also effective”; in [22] (20 mg/kg/day oral, 7 days/week, nude mice), “tumor regression”; in [23], “inhibit the growth”; in series [24] (nude mice), “inhibit the growth”; in [26], “complete inhibition”. Also, the PDX sensitivity result was “remains sensitive” in series [25] and “sensitive” in series [29]. Further, the PDX growth result in series [27] is “tumor regression”. For the same compound, the “inhibition of ERK and SRC in PDX” value in series [28] was “inhibit ERK and SRC”. Besides, the “PDX sensitivity compared with PLX4720” value in [30] (PLX4720 45 mg/kg, CCT compounds 20 mg/kg daily gavage, NSG mice) is reported as “more sensitive”. Also, the “inhibition of SFKs” value in series [32] (0.5 µM, Figure S3B) is recorded as “also inhibit SFKs”. For the same compound, in series [32], the “inhibition of MEK, ERK, and SRC” value was “inhibit MEK, ERK, and SRC”. Also, the “caspase 3 and PARP cleavage (apoptosis)” value in series [33] is “induce caspase 3 and PARP cleavage”.

Consider `CCCS(=O)(=O)Nc1ccc(F)c(C(=O)c2c[nH]c3ncc(Cl)cc23)c1F` [PLX4720, reference compound], for which the cell line sensitivity result in series [18] (CellTiter Glo) is “resistant”. Further, the cell sensitivity entry in series [19] is given as “not inhibited”. The figures for the PDX sensitivity entry in series [25] and in [29] were “resistance” and “resistant”, respectively. The xenograft growth entry in series [26] is reported as “resistant”. Moreover, in [27], the PDX growth result is on record as “neither does it inhibit the growth”. For the same compound, the “inhibition of ERK and SRC in PDX” value in series [28] was “does not inhibit ERK or SRC”. Further, the “inhibition of MEK, ERK, and SRC” value in series [32] is reported as “does not”. In addition, the “caspase 3 and PARP cleavage (apoptosis)” value in series [33] is reported as “does not”.

In the case of `C[S+]([O-])c1ccc(-c2nc(-c3ccncc3)c(-c3ccc(F)cc3)[nH]2)cc1` (stereo not drawn) [SB203580], the “cooperation with the pan-RAF inhibitors RAF265 or MLN2480” value in series [18] (10 µM SB203580 in combination, Figure S3E) is given as “does not cooperate”.

For the compound `COc1cc2ncnc(Nc3ccc(Oc4ccccc4)cc3)c2cc1OC` [SRC inhibitor 1], in [18] (40 µM SRC Inhibitor 1 with TAK632, Figure S3D), the “effect in combination with TAK632” value is listed as “increases the activity of the pan-RAF inhibitor TAK632”. Also, the activity alone result in [18] (CellTiter Glo, Figure S3D) was “inactive alone”.
